For nine molecules, undesirable effects and IC50 results are on record in US6747035B2, “1-alkyl or 1-cycloalkyltriazolo[4,3-a]quinazolin-5-ones as phosphodiesterase inhibitors” (Warner-Lambert LLC, priority 2001, dated 2004).

SMILES strings stand for the structures.

Tested on in one data set: not given
Assay: not given
The conditions noted are these: dose of 20 mg as a single intake; cited from earlier work.
As to `COc1ccc([C@]2(C#N)CC[C@@H](C(=O)O)CC2)cc1OC1CCCC1` [Ariflo], the undesirable effects result was “significant undesirable effects, such as nausea and vomiting”.

In the next data set the test system is PDE4. The experiment in a line: PDE4 enzyme inhibition (IC50), enzyme from cytosolic preparation of U937 cell line. The following applies: inhibitory activity on PDE4; substrate cAMP 0.25 μM; reaction stopped after 10 minutes. The data set is classed as biochemical, human. On the procedure: The capacity of the compounds of formula (I) of the invention to inhibit cyclic nucleotide phosphodiesterases is evaluated by measuring their IC50 (concentration required to inhibit 50% of the enzymatic activity).
The type 4 phosphodiesterases are obtained from a cytosolic preparation extracted from a cell line U937 of human origin according to the method adapted from T. J. Torphy et al., J. Pharm. Exp. Ther. (1992), 263: 1195-1205.
The measurement of the enzymatic activity of the various types of PDE, and in particular the PDE4, is carried out according to a method adapted from W. J. Thompson et al., Advances in Cyclic Nucleotide Research, (1979) Vol. 10: 69-92, ed. G. Brooker et al. Raven Press, NY.
The substrate used is cGMP for PDE1 and PDE5 and cAMP for PDE 3 and PDE 4. The substrate concentration was 0.2 μM for PDE 1, PDE 3 and PDE 5, 0.25 μM for PDE 4.
The enzymatic reaction was stopped after 1 hour for PDE 1, PDE 3 and PDE 5 and 10 minutes for PDE 4.
The following table illustrates the inhibitory activity on PDE4 of some of the compounds of formula (I): […]
By IC50 is commonly meant the midpoint of a concentration-inhibition curve. The low end stands for greater potency, the high end for weaker potency. For the molecule `Cc1nnc2n(Cc3ccccc3)c(=O)c3cc(Br)ccc3n12` [Example 11, 4-benzyl-7-bromo-1-methyl-4H-[1,2,4]triazolo[4,3-a]quinazolin-5-one], inhibition was half-maximal at 1 µM (IC50).
On to `CNc1ccc2c(c1)c(=O)n(Cc1ccccc1)c1nnc(C3CCCC3)n21` [Example 7, 4-benzyl-1-cyclopentyl-7-methylamino-4H-[1,2,4]triazolo[4,3-a]quinazolin-5-one], for which 0.075 µM corresponded to half-maximal inhibition (IC50).
Turning to `CC(=O)Nc1ccc2c(c1)c(=O)n(Cc1ccccc1)c1nnc(C)n21` [Example 4, 7-acetamido-4-benzyl-1-methyl-4H-[1,2,4]triazolo[4,3-a]quinazolin-5-one], the IC50 is 31 µM.
On to `CC(=O)N(C)c1ccc2c(c1)c(=O)n(Cc1ccc(C#N)cc1)c1nnc(C3CCCC3)n21` [Example 8, 4-(4-cyanobenzyl)-1-cyclopentyl-7-(N-methylacetamido)-4H-[1,2,4]triazolo[4,3-a]quinazolin-5-one], for which 1.3 µM corresponded to half-maximal inhibition (IC50).
`CNc1ccc2c(c1)c(=O)n(Cc1ccc(C#N)cc1)c1nnc(C3CCCC3)n21` [Example 9, 4-(4-cyanobenzyl)-1-cyclopentyl-7-(N-methylamino)-4H-[1,2,4]triazolo[4,3-a]quinazolin-5-one] gave an IC50 of 0.002 µM.
Same read-out and setting: next, `CC(=O)Nc1ccc2c(c1)c(=O)n(Cc1ccccc1)c1nnc(C3CCCC3)n21` [Example 2, 7-acetamido-4-benzyl-1-cyclopentyl-4H-[1,2,4]triazolo[4,3-a]quinazolin-5-one]: 8.5 µM; `CC(=O)N(C)c1ccc2c(c1)c(=O)n(Cc1ccccc1)c1nnc(C3CCCC3)n21` [Example 5, 4-benzyl-1-cyclopentyl-7-(N-methylacetamido)-4H-[1,2,4]triazolo[4,3-a]quinazolin-5-one]: 2.7 µM; `O=c1c2cc(Br)ccc2n2c(C3CCCC3)nnc2n1Cc1ccccc1` [Example 10, 4-benzyl-7-bromo-1-cyclopentyl-4H-[1,2,4]triazolo[4,3-a]quinazolin-5-one]: 0.061 µM.
